“Also recorded” adds a separate entry of the source.
Assays:
HvOR2 = assay: whole-cell patch clamp, HEK cells transiently transfected with HvOR2; type: cell-based, Heliothis virescens; conditions: HEK cells expressing HvOR2, −60 mV
Text: For transient transfections, ORs were cloned into pCI (Promega) and transfected into Flp-In™ T-REx™293 cell lines (Invitrogen) with Fu GENE6 (Roche). For the creation of stable cell lines, a cell culture expression vector capable of expressing AgORco in conjunction with a conventional OR, pcDNA5/FRT/TO (Invitrogen) was modified to create two individual expression cassettes each under the control of a separate CMV/TetO2 promoter and a BGH poly-adenylation signal. Cells (as above) were transfected with the modified pcDNA5 plasmid along with POG44 (a Flp recombinase expression plasmid) to facilitate site-specific recombination. Stable cell lines were selected using Hygromycin B (Invitrogen). Cells were maintained in DMEM (Invitrogen) supplemented with 10% Tetracycline-free FBS (HyClone) and 15 μg/ml Blasticidin. […] Baseline readings were taken for 20 s before automated addition of compound previously diluted in DMSO and assay buffer. […]
Currents from OR-expressing HEK293 cells were amplified with an Axopatch 200b Amplifier (Axon Instruments) and digitized through a Digidata 1322A (Axon Instruments). Electrophysiological data was recorded and analyzed using pCLAMP 10 (Axon Instruments). […]

[1] = tested on: Un-transfected HEK293 cells; assay: whole-cell patch clamp, control HEK293 cells (un-transfected or GFP alone); type: cell-based, human
Method: (§1) Currents from OR-expressing HEK293 cells were amplified with an Axopatch 200b Amplifier (Axon Instruments) and digitized through a Digidata 1322A (Axon Instruments). Electrophysiological data was recorded and analyzed using pCLAMP 10 (Axon Instruments). Electrodes were fabricated from quartz tubing (Sutter Instruments) and pulled to 4-6 MΩ for whole cell recording. Electrodes were filled with internal solution (120 mM KCl, 30 mM D-glucose, 10 mM HEPES, 2 mM MgCl2, 1.1 mM EGTA, and 0.1 CaCl2 (pH 7.35, 280 mOsm). External (bath) solution contained 130 mM NaCl, 34 mM D-glucose, 10 mM HEPES, 1.5 mM CaCl2, 1.3 mM KH2PO4, and 0.5 MgSO4 (pH 7.35, 300 mOsm). Compounds were diluted in external solution and locally perfused to the recording cell using Perfusion Pencil (Automate Scientific) and controlled by a ValveLink 8.2 controller (Automate Scientific). Whole cell recordings were sampled at 10 kHz and filtered at 5 kHz. Outside-out patches were obtained using 10-15MΩ electrodes pulled from standard glass capillaries (World Precision Instruments) and fire-polished with an MF-830 micro forge (Narishige). Single channel recordings were sampled at 20 kHz. Recordings were reduced to 1 kHz and low-pass filtered at 500 Hz for display and analysis using QuB (SUNY at Buffalo).

AgORco = biological target: T1, AgORco (Anopheles gambiae, UniProt Q7QCC7); assay: single-channel recording, outside-out patches from AgORco-expressing HEK293 cells; type: cell-based
T1 construct: expressed in transfected cells
T1 sequence (Q7QCC7 1-478): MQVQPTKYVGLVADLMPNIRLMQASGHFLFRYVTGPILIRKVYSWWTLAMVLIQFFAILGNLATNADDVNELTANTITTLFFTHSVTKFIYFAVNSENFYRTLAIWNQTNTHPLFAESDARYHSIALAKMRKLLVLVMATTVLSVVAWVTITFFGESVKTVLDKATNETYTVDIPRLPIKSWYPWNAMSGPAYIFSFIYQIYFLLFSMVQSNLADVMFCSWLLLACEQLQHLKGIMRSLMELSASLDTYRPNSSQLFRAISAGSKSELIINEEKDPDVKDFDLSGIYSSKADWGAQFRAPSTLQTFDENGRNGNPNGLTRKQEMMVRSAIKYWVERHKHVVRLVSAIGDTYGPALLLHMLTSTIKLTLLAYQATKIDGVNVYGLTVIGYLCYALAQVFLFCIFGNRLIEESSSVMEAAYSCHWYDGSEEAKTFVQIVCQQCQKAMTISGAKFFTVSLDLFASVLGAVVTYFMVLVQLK
Method: as §1
In the next set of studies, outside-out membrane patches were excised from AgORco-expressing cells to examine single-channel currents evoked by VUAA1 (FIG. 5A). Here, spontaneous channel opening was observed before VUAA1 stimulation, but with very low probability (Po=0.02) (FIG. 5B). During a 5 s application of VUAA1 channel opening probability increased to Po=0.38 (FIG. 5C). Subsequent to agonist washout, channel opening probability decreased to 0.00 (FIG. 5D). The average unitary current of AgORco was 1.3±0.3 pA (mean±st. dev.) (FIG. 5C, inset) which is consistent with earlier single-channel studies of insect ORs (Sato et al., 2008).

CCc1ccc(NC(=O)CSc2nnc(-c3cccnc3)n2CC)cc1 [VUAA1]
whole-cell currents (HvOR2): robust inward currents
whole-cell currents in GFP alone cells ([1]; HEK cells transfected with GFP alone): no currents
whole-cell currents in control cells ([1]; control / un-transfected HEK293 cells): no responses were observed; also recorded: did not respond
channel opening probability (Po) during application (AgORco; 5 s application of −4.0 log M, outside-out patch held at −60 mV, Po=0.02 before stimulation): 0.38
average unitary current of AgORco (AgORco; during VUAA1 application, mean±st. dev.): 1.3±0.3 pA
channel opening probability after agonist washout (AgORco; outside-out patch, after washout): 0.00
